Laboratory results published in US10676755B2, “Mutated acetohydroxyacid synthase genes in euphorbiaceae and plant material comprising such genes” (priority 2015, dated 2020).

Key:
[1] = test system: canola ALS mutant in CHI bacterial cells; experiment: bacterial spot test, serially-diluted cells on herbicide plates; type: cell-based; details: positive control canola ALS mutant
Description: (§1) Mutations were generated by site-directed mutagenesis (SDM) of the wild-type Cassava AHAS gene 1 and transformed into CHI bacterial cells lacking the endogenous AHAS homolog. Serially-diluted cells were plated onto plates with increasing concentrations of either imazamox (IM) or flumetsulam (TP). Cassava AHAS wt and a canola ALS mutant known to be highly herbicide tolerant were used as negative and positive controls, respectively. Representative set of bacterial spot tests showing the positive and negative controls, some other mutants tested and the W574S mutant. The herbicide concentrations listed on the left-most column correspond to the entire row and columns separate different lines. Each spot test consists of four 1:10 serial dilutions (10-3, 10-4, 10-5 and 10-6) after normalization based on the OD600 of each M9 liquid culture.
as §1, with “D376A” for “W574S”

[2] = test system: cassava AHAS W574S mutant in CHI bacterial cells; experiment: kill curve assay, colonies counted on herbicide plates; type: cell-based, Cassava (Manihot esculenta)
Description: (§2) Mutants were also tested using a “kill curve” assay where equal numbers of cells containing the mutant of interest were plated onto plates with increasing concentrations of herbicide and the number of resulting colonies counted. Kill curve results averaged between three experiments, each with an average of three technical replicates. Error bars are ±one standard deviation of the averaged data. Results are depicted in FIG. 6.

[3] = test system: wt cassava AHAS gene in CHI bacterial cells lacking the endogenous AHAS homolog; experiment: bacterial spot test, serially-diluted cells on herbicide plates; type: cell-based, Cassava (Manihot esculenta); details: negative control wt cassava AHAS gene
Description: as §1
Mutations were generated by site-directed mutagenesis (SDM) of the wild-type Cassava AHAS gene 1 and transformed into CHI bacterial cells lacking the endogenous AHAS homolog. Serially-diluted cells were plated onto plates with increasing concentrations of either imazamox (IM) or flumetsulam (TP). Cassava AHAS wt and a canola ALS mutant known to be highly herbicide tolerant were used as negative and positive controls, respectively. […]

[4] = test system: cassava AHAS W574S mutant in CHI bacterial cells; experiment: as above; type: cell-based, Cassava (Manihot esculenta); details: similar to the canola positive control
Description: as §1

[5] = test system: cassava AHAS W574L mutant in CHI bacterial cells; experiment: as above; type: cell-based, Cassava (Manihot esculenta); details: growth is inconsistent
Description: as §1, with “D376A” for “W574S”

[6] = test system: cassava AHAS W574L mutant in CHI bacterial cells; experiment: kill curve assay, colonies counted on herbicide plates; type: cell-based, Cassava (Manihot esculenta); details: growth is inconsistent
Description: as §2
(§3) Mutants were also tested using a “kill curve” assay where equal numbers of cells containing the mutant of interest were plated onto plates with increasing concentrations of herbicide and the number of resulting colonies counted. Kill curve results averaged between three experiments, each with an average of three technical replicates. Error bars are ±one standard deviation of the averaged data. Results are depicted in FIG. 8.

[7] = test system: cassava AHAS D376A mutant in CHI bacterial cells; experiment: bacterial spot test, serially-diluted cells on herbicide plates; type: cell-based, Cassava (Manihot esculenta)
Description: as §1, with “D376A” for “W574S”

[8] = test system: cassava AHAS D376A mutant in CHI bacterial cells; experiment: kill curve assay, colonies counted on herbicide plates; type: cell-based, Cassava (Manihot esculenta)
Description: as §3

Compound	growth of cells on plates containing herbicide [1]	herbicide concentration at which all growth ceased [1] [mM]	tolerance to herbicide [2]	growth of cells on plates containing herbicide [3]	growth of cells on plates containing herbicide [4]	tolerance to herbicide [5]	tolerance to herbicide [6]	tolerance to herbicide [7]	tolerance to herbicide [8]
Cc1ccn2nc(S(=O)(=O)Nc3c(F)cccc3F)nc2n1 [TP, flumetsulam]	grew on all concentrations	5	enhanced tolerance	failed to grow	robust growth	robust tolerance	robust tolerance	–	–
COCc1cnc(C2=NC(C)(C(C)C)C(=O)N2)c(C(=O)O)c1 (stereo not drawn) [IM, imazamox]	grew on all concentrations	5	–	failed to grow	robust growth	robust tolerance	robust tolerance	robust tolerance	robust tolerance
